In the supplement of paper PMC12076712:

Assays:
Assay in all cases: pIC50, kinobeads binding competition
DAPK3 = DAPK3 (UniProt O43293)
In short: (§1)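 Fold changes relative to vehicle, from biological duplicates, were fitted with logistic dose-response models in the R drc package to give pIC50. These fold changes came from TMT10 LC-MS/MS quantification of digested Kinobeads-bound proteins. Compound was applied at nine concentrations (top 30 μM) either to live Jurkat cells in 1:4 steps for 60 min at 37 °C before lysis, or to Jurkat lysate or a 1:1:1:1 HEK293/K-562/HepG2/placenta lysate mix in 1:5 steps for 60 min at 4 °C.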

EPHA3 = target: T1, EPHA3 (UniProt P29320)
T1 sequence (whole entry): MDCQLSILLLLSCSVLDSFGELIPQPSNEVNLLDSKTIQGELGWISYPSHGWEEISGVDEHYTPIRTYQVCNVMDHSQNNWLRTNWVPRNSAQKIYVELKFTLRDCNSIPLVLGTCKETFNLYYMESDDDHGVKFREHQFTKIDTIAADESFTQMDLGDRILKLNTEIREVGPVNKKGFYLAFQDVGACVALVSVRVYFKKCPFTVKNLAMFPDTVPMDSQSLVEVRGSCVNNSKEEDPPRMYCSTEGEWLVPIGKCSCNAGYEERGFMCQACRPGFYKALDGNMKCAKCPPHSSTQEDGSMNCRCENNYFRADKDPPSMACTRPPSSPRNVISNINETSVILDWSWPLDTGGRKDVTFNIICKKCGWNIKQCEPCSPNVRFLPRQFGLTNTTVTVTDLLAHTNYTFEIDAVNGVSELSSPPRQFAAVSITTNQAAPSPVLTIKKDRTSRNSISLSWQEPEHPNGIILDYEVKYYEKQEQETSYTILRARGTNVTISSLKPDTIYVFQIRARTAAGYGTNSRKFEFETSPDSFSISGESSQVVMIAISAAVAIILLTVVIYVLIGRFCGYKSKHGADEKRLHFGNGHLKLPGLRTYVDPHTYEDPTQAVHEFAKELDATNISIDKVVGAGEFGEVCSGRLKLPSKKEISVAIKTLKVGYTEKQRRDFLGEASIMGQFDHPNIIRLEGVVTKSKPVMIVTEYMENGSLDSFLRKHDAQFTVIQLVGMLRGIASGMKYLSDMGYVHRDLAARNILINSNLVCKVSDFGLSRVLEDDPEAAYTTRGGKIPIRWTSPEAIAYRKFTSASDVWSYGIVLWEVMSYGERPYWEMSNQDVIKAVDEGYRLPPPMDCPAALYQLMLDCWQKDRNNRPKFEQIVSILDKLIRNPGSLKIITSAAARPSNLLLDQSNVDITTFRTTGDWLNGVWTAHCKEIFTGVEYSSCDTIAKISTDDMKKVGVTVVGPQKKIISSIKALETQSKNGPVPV
In short: as §1

LCK = LCK (UniProt P06239)
In short: as §1

MAP3K15 = target: T2, MAP3K15 (UniProt Q6ZN16); settings: cell material: Lysate mix
T2 sequence (whole entry): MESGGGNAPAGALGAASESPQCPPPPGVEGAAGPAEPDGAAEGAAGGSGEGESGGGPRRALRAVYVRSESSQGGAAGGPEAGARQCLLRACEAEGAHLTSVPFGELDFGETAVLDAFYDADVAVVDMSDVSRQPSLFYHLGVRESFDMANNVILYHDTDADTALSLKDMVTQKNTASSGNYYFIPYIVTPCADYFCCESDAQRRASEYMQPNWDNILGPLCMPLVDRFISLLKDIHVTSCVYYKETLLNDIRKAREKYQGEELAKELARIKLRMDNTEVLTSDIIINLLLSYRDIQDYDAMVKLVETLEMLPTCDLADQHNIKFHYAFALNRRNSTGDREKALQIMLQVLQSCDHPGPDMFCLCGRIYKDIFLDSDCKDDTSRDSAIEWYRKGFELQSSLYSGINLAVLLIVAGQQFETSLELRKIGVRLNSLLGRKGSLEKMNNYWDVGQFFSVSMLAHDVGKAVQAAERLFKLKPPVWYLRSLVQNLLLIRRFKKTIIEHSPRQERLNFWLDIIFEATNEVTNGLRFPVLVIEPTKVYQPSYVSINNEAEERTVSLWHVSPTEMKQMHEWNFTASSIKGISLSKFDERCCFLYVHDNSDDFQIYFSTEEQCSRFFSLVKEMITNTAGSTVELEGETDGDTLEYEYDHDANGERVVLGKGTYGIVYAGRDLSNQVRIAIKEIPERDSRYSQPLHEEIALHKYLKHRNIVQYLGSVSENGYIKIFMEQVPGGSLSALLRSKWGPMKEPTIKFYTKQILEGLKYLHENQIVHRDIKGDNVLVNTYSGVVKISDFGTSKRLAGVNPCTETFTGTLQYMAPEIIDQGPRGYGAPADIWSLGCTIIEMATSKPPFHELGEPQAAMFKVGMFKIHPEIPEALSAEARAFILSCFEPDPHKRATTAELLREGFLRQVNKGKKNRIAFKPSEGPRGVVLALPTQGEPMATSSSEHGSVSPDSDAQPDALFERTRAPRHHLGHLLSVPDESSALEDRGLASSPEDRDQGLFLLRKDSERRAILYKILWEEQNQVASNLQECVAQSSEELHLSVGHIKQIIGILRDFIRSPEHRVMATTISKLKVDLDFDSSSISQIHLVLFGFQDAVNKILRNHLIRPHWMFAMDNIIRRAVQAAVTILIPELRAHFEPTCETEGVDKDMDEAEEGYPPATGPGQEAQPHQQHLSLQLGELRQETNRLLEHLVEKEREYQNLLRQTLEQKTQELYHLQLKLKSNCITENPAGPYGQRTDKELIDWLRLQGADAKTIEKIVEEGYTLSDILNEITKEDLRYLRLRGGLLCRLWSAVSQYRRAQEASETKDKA
In short: as §1

MAST4 = MAST4 (UniProt O15021)
In short: as §1

STK33 = STK33 (UniProt Q9BYT3)
In short: as §1

STK35 = STK35 (UniProt Q8TDR2)
In short: as §1

UniProt P17612 = target: UniProt P17612
In short: as §1

UniProt P51812 = target: UniProt P51812
In short: as §1

UniProt Q02763 = settings: cell material: Lysate mix
In short: as §1

UniProt Q07912 = target: UniProt Q07912
In short: as §1

UniProt Q9H0K1 = target: UniProt Q9H0K1
In short: as §1

UniProt P51812, sequence (P51812 whole entry): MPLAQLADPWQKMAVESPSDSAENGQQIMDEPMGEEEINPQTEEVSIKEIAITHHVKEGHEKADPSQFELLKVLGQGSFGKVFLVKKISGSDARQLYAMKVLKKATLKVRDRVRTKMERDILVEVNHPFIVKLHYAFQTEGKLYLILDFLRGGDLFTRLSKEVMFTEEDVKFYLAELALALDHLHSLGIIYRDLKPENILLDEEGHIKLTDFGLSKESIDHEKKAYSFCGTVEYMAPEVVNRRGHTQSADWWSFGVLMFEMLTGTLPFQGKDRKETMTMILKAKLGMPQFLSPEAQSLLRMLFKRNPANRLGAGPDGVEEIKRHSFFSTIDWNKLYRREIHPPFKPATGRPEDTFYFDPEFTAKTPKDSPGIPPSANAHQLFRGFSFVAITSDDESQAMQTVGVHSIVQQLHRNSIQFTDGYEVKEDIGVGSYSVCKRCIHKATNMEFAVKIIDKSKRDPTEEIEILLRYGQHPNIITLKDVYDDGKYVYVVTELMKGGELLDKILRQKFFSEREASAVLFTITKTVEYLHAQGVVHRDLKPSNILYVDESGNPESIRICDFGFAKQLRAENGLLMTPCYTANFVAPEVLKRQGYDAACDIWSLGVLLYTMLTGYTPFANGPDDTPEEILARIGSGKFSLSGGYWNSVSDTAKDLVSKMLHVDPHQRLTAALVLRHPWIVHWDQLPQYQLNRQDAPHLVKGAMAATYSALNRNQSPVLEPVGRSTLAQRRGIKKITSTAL
UniProt Q9H0K1, sequence (Q9H0K1 whole entry, looked up): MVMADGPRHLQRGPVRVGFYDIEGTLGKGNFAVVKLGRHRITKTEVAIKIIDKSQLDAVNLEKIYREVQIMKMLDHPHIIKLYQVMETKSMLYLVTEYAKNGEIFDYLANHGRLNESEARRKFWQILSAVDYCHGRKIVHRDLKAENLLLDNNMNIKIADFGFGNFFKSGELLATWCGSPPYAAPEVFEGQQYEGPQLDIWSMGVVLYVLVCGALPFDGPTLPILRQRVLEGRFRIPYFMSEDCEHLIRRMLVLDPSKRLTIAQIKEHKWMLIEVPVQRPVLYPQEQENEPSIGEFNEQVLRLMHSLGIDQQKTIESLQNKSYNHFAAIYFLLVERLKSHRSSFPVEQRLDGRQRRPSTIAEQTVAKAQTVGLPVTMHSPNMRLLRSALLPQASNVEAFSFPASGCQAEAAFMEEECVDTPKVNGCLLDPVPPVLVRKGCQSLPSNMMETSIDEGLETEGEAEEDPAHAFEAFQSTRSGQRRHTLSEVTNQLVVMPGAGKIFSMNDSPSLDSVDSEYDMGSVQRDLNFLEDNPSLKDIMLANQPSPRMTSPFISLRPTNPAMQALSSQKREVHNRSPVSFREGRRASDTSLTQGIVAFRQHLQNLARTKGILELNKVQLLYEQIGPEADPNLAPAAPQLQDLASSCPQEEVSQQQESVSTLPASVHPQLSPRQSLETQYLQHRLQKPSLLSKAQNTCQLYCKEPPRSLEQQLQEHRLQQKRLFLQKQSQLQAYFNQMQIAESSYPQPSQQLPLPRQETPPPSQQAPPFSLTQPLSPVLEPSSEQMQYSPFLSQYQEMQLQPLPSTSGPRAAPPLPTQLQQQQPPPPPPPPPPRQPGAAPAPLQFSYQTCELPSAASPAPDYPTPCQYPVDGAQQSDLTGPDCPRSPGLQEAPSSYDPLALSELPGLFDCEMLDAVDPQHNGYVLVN
LCK, sequence (P06239 whole entry, looked up): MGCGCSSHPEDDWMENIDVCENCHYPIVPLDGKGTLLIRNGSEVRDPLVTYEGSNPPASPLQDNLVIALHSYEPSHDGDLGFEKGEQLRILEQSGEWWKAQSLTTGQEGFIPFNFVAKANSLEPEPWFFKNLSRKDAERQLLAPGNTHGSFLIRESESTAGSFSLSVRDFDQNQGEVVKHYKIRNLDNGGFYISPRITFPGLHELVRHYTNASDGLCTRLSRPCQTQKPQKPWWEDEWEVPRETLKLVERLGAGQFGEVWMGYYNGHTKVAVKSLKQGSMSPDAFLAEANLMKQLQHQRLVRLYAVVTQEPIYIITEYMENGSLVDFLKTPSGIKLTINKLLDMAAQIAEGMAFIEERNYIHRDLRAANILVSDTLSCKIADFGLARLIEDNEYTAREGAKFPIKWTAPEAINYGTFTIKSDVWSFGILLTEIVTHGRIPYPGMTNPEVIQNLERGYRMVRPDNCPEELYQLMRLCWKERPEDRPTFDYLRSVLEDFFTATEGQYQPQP
UniProt Q02763, sequence (Q02763 whole entry): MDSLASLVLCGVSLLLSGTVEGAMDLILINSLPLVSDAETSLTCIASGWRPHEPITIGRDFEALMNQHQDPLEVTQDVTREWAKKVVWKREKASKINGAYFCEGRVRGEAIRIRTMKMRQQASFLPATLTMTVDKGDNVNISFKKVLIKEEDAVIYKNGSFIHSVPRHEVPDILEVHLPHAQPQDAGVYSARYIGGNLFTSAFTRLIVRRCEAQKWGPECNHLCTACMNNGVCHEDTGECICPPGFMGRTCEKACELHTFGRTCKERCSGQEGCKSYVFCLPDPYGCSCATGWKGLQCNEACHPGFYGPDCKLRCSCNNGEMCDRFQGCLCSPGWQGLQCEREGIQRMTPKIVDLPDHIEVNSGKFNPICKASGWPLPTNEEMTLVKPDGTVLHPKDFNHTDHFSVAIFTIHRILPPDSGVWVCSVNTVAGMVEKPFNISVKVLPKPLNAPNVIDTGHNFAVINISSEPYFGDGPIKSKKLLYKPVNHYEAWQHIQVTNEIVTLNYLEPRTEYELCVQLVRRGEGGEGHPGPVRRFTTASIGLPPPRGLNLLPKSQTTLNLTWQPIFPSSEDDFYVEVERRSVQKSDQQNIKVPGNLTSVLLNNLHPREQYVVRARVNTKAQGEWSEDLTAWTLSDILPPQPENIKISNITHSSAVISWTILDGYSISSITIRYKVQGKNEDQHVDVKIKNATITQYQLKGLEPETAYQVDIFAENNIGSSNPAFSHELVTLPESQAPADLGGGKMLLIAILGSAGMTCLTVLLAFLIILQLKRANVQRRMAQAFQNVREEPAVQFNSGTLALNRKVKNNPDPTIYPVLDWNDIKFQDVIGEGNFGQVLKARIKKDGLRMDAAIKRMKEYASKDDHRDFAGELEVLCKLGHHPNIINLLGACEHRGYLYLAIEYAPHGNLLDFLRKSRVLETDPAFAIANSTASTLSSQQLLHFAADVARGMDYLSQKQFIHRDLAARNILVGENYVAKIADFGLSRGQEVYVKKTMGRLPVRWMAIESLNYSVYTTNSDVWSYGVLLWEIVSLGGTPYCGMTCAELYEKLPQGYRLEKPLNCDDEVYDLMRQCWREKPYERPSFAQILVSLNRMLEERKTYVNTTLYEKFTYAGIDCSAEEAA
STK35, sequence (Q8TDR2 whole entry): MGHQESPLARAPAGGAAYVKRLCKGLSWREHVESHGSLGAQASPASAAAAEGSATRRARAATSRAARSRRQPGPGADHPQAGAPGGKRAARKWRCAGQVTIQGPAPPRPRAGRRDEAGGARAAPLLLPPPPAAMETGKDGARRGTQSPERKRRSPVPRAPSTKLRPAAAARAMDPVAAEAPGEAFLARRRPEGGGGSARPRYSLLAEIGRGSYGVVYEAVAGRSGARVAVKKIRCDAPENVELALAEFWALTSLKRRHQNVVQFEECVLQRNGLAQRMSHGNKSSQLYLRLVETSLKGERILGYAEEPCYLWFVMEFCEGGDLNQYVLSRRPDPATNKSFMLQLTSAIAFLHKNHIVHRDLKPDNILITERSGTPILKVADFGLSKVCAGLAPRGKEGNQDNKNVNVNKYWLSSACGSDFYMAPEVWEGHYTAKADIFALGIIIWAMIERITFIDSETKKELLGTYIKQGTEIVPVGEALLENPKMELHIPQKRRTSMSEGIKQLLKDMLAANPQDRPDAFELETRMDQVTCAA
UniProt Q07912, sequence (Q07912 whole entry, looked up): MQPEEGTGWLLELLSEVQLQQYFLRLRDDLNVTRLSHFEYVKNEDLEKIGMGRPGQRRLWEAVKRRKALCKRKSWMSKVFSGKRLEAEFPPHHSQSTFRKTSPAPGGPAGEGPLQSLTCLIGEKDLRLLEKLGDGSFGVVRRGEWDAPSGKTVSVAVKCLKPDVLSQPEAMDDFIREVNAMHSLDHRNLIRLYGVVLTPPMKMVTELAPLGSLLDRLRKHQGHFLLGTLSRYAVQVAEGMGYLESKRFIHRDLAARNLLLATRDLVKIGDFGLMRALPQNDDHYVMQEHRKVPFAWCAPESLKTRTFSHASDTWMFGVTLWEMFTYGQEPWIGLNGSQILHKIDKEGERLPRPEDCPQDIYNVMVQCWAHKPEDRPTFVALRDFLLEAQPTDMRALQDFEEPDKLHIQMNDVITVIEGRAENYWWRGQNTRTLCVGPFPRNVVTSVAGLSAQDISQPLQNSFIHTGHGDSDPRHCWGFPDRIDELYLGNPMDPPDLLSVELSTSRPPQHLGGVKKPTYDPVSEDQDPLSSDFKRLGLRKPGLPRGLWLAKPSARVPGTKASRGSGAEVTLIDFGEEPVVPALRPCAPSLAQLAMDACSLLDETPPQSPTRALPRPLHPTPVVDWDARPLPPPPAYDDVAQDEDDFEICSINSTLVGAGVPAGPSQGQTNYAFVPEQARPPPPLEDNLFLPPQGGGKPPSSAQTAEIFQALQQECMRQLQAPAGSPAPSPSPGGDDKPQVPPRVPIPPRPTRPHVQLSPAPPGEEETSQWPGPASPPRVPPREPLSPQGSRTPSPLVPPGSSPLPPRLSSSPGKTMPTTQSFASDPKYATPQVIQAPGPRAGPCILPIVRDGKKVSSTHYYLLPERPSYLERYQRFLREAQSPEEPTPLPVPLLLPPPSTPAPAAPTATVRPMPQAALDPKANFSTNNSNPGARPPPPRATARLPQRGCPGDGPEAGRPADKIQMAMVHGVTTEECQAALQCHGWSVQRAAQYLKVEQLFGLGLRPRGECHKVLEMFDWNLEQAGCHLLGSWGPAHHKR

| pIC50 (DAPK3; cell material: Lysate mix) | pIC50 (EPHA3; cell material: Lysate mix) | pIC50 (LCK; cell material: Lysate mix) | pIC50 (MAP3K15) | pIC50 (MAST4; cell material: Lysate mix) | pIC50 (STK33; cell material: Lysate mix) | pIC50 (STK35; cell material: Lysate mix) | pIC50 (UniProt P17612; cell material: Lysate mix) | pIC50 (UniProt P51812; cell material: Lysate mix) | pIC50 (UniProt Q02763) | pIC50 (UniProt Q07912; cell material: Lysate mix) | pIC50 (UniProt Q9H0K1; cell material: Lysate mix) | pIC50 (DAPK3; cell material: Jurkat cells) | pIC50 (EPHA3; cell material: Jurkat cells) | pIC50 (MAST4; cell material: Jurkat cells) | Structure (SMILES) | pIC50 (EPHA3; cell material: Jurkat lysate) | pIC50 (LCK; cell material: Jurkat cells) | pIC50 (LCK; cell material: Jurkat lysate) | pIC50 (MAST4; cell material: Jurkat lysate) | pIC50 (STK33; cell material: Jurkat cells) | pIC50 (STK33; cell material: Jurkat lysate) | pIC50 (STK35; cell material: Jurkat cells) | pIC50 (STK35; cell material: Jurkat lysate) | pIC50 (UniProt P17612; cell material: Jurkat cells) | pIC50 (UniProt P17612; cell material: Jurkat lysate) | pIC50 (UniProt P51812; cell material: Jurkat cells) | pIC50 (UniProt P51812; cell material: Jurkat lysate) | pIC50 (UniProt Q07912; cell material: Jurkat cells) | pIC50 (UniProt Q07912; cell material: Jurkat lysate) | pIC50 (UniProt Q9H0K1; cell material: Jurkat cells) | pIC50 (UniProt Q9H0K1; cell material: Jurkat lysate) |
| --- | --- | --- | --- | --- | --- | --- | --- | --- | --- | --- | --- | --- | --- | --- | --- | --- | --- | --- | --- | --- | --- | --- | --- | --- | --- | --- | --- | --- | --- | --- | --- |
| 4.77 | < 4.52 | 5.66 | 4.92 | 6.06 | < 4.52 | 6.01 | < 4.52 | 5.11 | < 4.52 | < 4.52 | < 4.52 | – | – | – | C#CCNC(=O)c1cc(Nc2cc(C)[nH]n2)nc(N2CCN(Cc3ccc(S(=O)(=O)F)cc3)CC2)n1 | – | – | – | – | – | – | – | – | – | – | – | – | – | – | – | – |
| < 4.52 | < 4.52 | – | < 4.52 | 5.3 | < 4.52 | 5.2 | < 4.52 | < 4.52 | < 4.52 | < 4.52 | < 4.52 | < 4.52 | < 4.52 | 6.3 | O=C(NCCNC(=O)c1cc(Nc2cc(C3CC3)[nH]n2)nc(N2CCN(Cc3ccc(S(=O)(=O)F)cc3)CC2)n1)OC1CC/C=C/CCC1 (stereo unspecified) | < 4.52 | 5.67 | < 4.52 | 5.17 | 5.76 | < 4.52 | 6.88 | 5.19 | < 4.52 | < 4.52 | 5.86 | < 4.52 | < 4.52 | < 4.52 | 5.62 | < 4.52 |
| 4.83 | < 4.52 | 5.89 | < 4.52 | 6.37 | 5.67 | 6.58 | < 4.52 | 5.28 | < 4.52 | < 4.52 | < 4.52 | – | – | – | CCNC(=O)c1cc(Nc2cc(C3CC3)[nH]n2)nc(N2CCN(Cc3ccc(S(=O)(=O)F)cc3)CC2)n1 | – | – | – | – | – | – | – | – | – | – | – | – | – | – | – | – |
| 5.14 | < 4.52 | 5.72 | 4.94 | 6.4 | < 4.52 | 6.51 | < 4.52 | 4.87 | < 4.52 | < 4.52 | < 4.52 | – | – | – | CCNC(=O)c1cc(Nc2cc(C)[nH]n2)nc(N2CCN(Cc3ccc(S(=O)(=O)F)cc3)CC2)n1 | – | – | – | – | – | – | – | – | – | – | – | – | – | – | – | – |
| < 4.52 | < 4.52 | < 4.52 | < 4.52 | 4.74 | < 4.52 | 4.91 | < 4.52 | < 4.52 | < 4.52 | < 4.52 | < 4.52 | – | – | – | Cc1cc(Nc2cc(C(=O)NCCNC(=O)OC3CC/C=C/CCC3)nc(N3CCN(Cc4ccc(S(=O)(=O)F)cc4)CC3)n2)n[nH]1 (stereo unspecified) | – | – | – | – | – | – | – | – | – | – | – | – | – | – | – | – |

| Structure (SMILES) | pIC50 (DAPK3; cell material: Lysate mix) | pIC50 (EPHA3; cell material: Lysate mix) | pIC50 (LCK; cell material: Lysate mix) | pIC50 (MAP3K15) | pIC50 (MAST4; cell material: Lysate mix) | pIC50 (STK33; cell material: Lysate mix) | pIC50 (STK35; cell material: Lysate mix) | pIC50 (UniProt P17612; cell material: Lysate mix) | pIC50 (UniProt P51812; cell material: Lysate mix) | pIC50 (UniProt Q02763) | pIC50 (UniProt Q07912; cell material: Lysate mix) | pIC50 (UniProt Q9H0K1; cell material: Lysate mix) | pIC50 (DAPK3; cell material: Jurkat cells) | pIC50 (EPHA3; cell material: Jurkat cells) | pIC50 (MAST4; cell material: Jurkat cells) | pIC50 (EPHA3; cell material: Jurkat lysate) | pIC50 (LCK; cell material: Jurkat cells) | pIC50 (LCK; cell material: Jurkat lysate) | pIC50 (MAST4; cell material: Jurkat lysate) | pIC50 (STK33; cell material: Jurkat cells) | pIC50 (STK33; cell material: Jurkat lysate) | pIC50 (STK35; cell material: Jurkat cells) | pIC50 (STK35; cell material: Jurkat lysate) | pIC50 (UniProt P17612; cell material: Jurkat cells) | pIC50 (UniProt P17612; cell material: Jurkat lysate) | pIC50 (UniProt P51812; cell material: Jurkat cells) | pIC50 (UniProt P51812; cell material: Jurkat lysate) | pIC50 (UniProt Q07912; cell material: Jurkat cells) | pIC50 (UniProt Q07912; cell material: Jurkat lysate) | pIC50 (UniProt Q9H0K1; cell material: Jurkat cells) | pIC50 (UniProt Q9H0K1; cell material: Jurkat lysate) |
| --- | --- | --- | --- | --- | --- | --- | --- | --- | --- | --- | --- | --- | --- | --- | --- | --- | --- | --- | --- | --- | --- | --- | --- | --- | --- | --- | --- | --- | --- | --- | --- |
| C#CCNC(=O)c1cc(Nc2cc(C3CC3)[nH]n2)nc(N2CCN(Cc3ccc(S(=O)(=O)F)cc3)CC2)n1 | < 4.52 | < 4.52 | 6.07 | < 4.52 | 7 | 5.82 | 6.96 | < 4.52 | 5.44 | < 4.52 | < 4.52 | < 4.52 | – | – | – | < 4.52 | 6.47 | 5.64 | 6.46 | 6.2 | 5.12 | 6.96 | 6.1 | < 4.52 | < 4.52 | 5.96 | < 4.52 | 5.16 | < 4.52 | 6.22 | < 4.52 |
